This is an account of results in PMC12037037 (Proceedings of the National Academy of Sciences of the …, 2025).

Structures are written as SMILES.

Assay [1] addresses wild type human 5-HT2A receptor (psychLight2, PSYLI2 cells) (Homo sapiens, UniProt P28223). The experiment in a line: PsychLight assay, wild type. Type of assay: cell-based.
Description: PsychLight Assays. Psychlight assays were performed using a previously published method (15) with slight modifications.
Briefly, a solution of PSYLI2 cells suspended in DMEM containing 10% FBS with 5% penicillin-streptomycin was added to
poly-D-lysine-coated glass bottom 96-well plates. The cells were plated at a density of 60,000 cells/well for the inner 60
wells and 90,000 cells/well for the outer 36 wells and incubated at 37°C with 5% CO2 for 18–24 h prior to each experiment.
On the day of each experiment, the DMEM solution was replaced with 100 µL/well Hoechst solution (2 µM in HBSS) and
incubated for 30 min at 37°C with 5% CO2. Plates were then washed 3x 200 µL HBSS and replaced with 160 µL/well of
assay buffer (HBSS with 0.5 mM HEPES buffer, adjusted to pH = 7.4 with 1 M NaOH) and incubated for 30 min (37°C, 5%
CO2). The cells were then imaged on a Thermo Scientific CellInsight CX7 LZR High Content Analysis Platform at 10X
(37°C, 5% CO2). Images from nine regions of interest (ROI) per well were obtained following the default ROI pattern with
no bias to location and no overlap of the ROIs. Baseline images were collected prior to drug addition. […]
activation was quantified using the built-in Target Validation Assay (version 6.0.1.4021) on the Thermo Scientific HCS Studio […]
objects (psychLight signal) were defined as signal within 12 pixels of the primary objects. PsychLight signal was calculated […]
For assay [2], the system named is C57BL/6J mice. The experiment in a line: Prepulse inhibition (PPI). Type of assay: in vivo. How it is done:
Amphetamine-Induced Locomotion. The amphetamine-induced hyperlocomotion assay was performed using male and female C57BL/6J mice that were approximately 8 weeks old at the time of the experiments. Animals were first placed in the test arena (40 cm x 40 cm) for 15 min to obtain a basal reading of locomotion and habituate them to the testing arena.
Next, animals were administered (+)-JRT (1 mg/kg) or VEH (2.5 mL/kg, i.p) and placed back in the test arena. After 15 min, the animals were administered (+)-amphetamine (3 mg/kg) or VEH (2.5 mL/kg) and placed back in the test arena for 60 minutes. Locomotion during the entire experiment was quantified using ANYmaze Video Tracking System, version 7.07 (Stoelting Co.). The test arena was cleaned thoroughly with 70% ethanol between trials.
PCP-Induced Locomotion. The PCP-induced hyperlocomotion assay was performed by Psychogenics using male C57BL/6J mice that were approximately 8 weeks old at the time of the experiments. The experiment was performed during the animal’s light cycle phase. […] Baseline activity was recorded for 30 min. […] Locomotion was assessed using consecutive infrared beam breaks. […]
Next, startle response was measured in response to five 40 ms sound bursts of 80, 90, 100, 110, or 120 dB (random order, fixed intertrial interval). […] Percent PPI was calculated according to the formula: 100 – [(pre-pulse + pulse)/pulse alone) × 100. […]

Chain of wild type human 5-HT2A receptor (psychLight2, PSYLI2 cells) (P28223 with tags, fused parts or gaps): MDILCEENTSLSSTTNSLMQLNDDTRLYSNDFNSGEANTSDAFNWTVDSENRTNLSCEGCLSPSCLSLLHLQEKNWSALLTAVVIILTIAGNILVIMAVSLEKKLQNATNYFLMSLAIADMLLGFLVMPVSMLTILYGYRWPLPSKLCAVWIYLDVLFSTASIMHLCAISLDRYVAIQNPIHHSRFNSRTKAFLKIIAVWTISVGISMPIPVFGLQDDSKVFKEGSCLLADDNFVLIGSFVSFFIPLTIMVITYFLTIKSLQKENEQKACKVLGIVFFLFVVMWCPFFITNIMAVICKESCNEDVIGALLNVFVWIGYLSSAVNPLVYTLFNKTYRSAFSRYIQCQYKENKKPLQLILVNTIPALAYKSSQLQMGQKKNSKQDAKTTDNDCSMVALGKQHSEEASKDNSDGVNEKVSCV
Chain of wild type human 5-HT2A receptor (psychLight2, PSYLI2 cells) (P42212 with tags, fused parts or gaps partner): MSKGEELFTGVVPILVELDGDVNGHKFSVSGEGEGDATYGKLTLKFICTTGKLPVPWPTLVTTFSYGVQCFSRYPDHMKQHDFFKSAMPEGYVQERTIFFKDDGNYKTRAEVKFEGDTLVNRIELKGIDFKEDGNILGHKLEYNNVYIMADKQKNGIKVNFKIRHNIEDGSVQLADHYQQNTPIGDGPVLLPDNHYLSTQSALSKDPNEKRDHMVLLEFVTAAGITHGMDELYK

Broadly, the EC50 is the midpoint of the concentration-response curve. In general, Emax refers to the greatest response seen or fitted, relative to the assay's reference. Consider `CCN(CC)C(=O)[C@@H]1C=C2c3cccc4ccn(c34)C[C@H]2N(C)C1` [(+)-JRT], for which a half-maximal response in assay [1] (EC50) required 90 nM. For the same compound, in assay [1] (read-out: psychLight (WT): EMax), the Emax was determined as 33%. Moreover, the “Deficits in prepulse inhibition induced by the compound itself” value in assay [2] (1 mg/kg IP) is “did not induce any deficits in PPI”. Moreover, in assay [2] (1 mg/kg IP pretreatment, MK-801), the “Effect of pretreatment on MK-801-induced deficits in prepulse inhibition” value was “did not exacerbate”.
